Series [1] relates to OVCAR-3 cells. In words: OVCAR-3 cell proliferation (Cell Titer-Glo, 10 days). In kind it is cell-based, human. An outline of the steps:
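IC50 was fitted by nonlinear regression of percent inhibition versus the 0.1% DMSO control. Luminescence was read with Cell Titer-Glo after 10 days of co-culture of logarithmic-phase cells (400/well) with compound at 0.12 nM–10 μM final, in medium with 20% fetal bovine serum and 0.01 mg/mL insulin.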
(In ATP-based viability assays light output follows the ATP content of the culture.)

The test system of series [2] is HT-29 cells. Nature of the series: HT-29 cell proliferation (Cell Titer-Glo, 6 days). In kind it is cell-based. The protocol:
The inhibitory effect on the KIF18A target by the compounds of the present disclosure was evaluated by testing the inhibitory effect on proliferation of HT-29 cells by the compounds of the present disclosure.
HT-29 (ATCC, HTB-38) cells were cultured in McCoy's 5a complete medium (Gibco, 12330-031) containing 10% fetal bovine serum (Gibco, 10099-141C), 100 U penicillin and […] streptomycin (Gibco, 15140-122). The Promega kit Cell Titer-Glo (Promega: G7572) was used in this method for test. • 1. HT-29 cells were cultured in T75 cell flasks (Corning, 430641) and the medium was placed in a 37° C., 5% CO2 incubator. Cells were passaged when reaching a cell density of 70%-80%, approximately twice per week. • 2. To perform the experiment, the test compounds were dissolved in DMSO to prepare a 10 mM stock solution, and the test compounds were added to the 384-well cell test plate (Corning, 3765) at the predetermined concentration using ECHO. • 3. The cell culture flask was taken out, the medium was removed, and the cells were rinsed with PBS. Then 2 mL of trypsin (with 0.25% EDTA) was added, and the flask was placed in the incubator for digestion for 4 minutes. • 4. Digestion was stopped by adding 4 mL of complete medium and the cell suspension was transferred to a centrifuge tube and centrifuged at 1000 rpm for 4 minutes. • 5. The cells were resuspended in 6 mL of complete medium, followed by cell counting. The cell density was adjusted to 4,170 cells/mL, and the cells were added to a 384-well plate at 60 μL/well. • 6. The 384-well plate was centrifuged at 500 rpm for 1 minute, and then placed in a 37° C., 5% CO2 incubator for 6 days of cultivation. • 7. Six days later, the cell culture plate was equilibrated for 10 minutes at room temperature, 25 μL of Cell Titer-Glo was added to each well, and the mixture was shaken and mixed well and let stand for 5 minutes. The luminescence values for samples in various wells were read using a microplate reader in Luminescence mode.
The percentage of inhibition of cell proliferation by the test compound at each concentration was calculated by comparing with the values of the control group (0.3% DMSO). The IC50 values of the compounds were obtained by concentration-inhibition rate nonlinear regression analysis of the test compounds using GraphPad Prism 9.

Series [3] concerns the target KIF18A (Homo sapiens (Human), UniProt Q8NI77). Nature of the series: KIF18A ATPase activity under tubulin stimulation (ADP-Glo assay). In kind it is biochemical. To be noted: KIF18A 30 nM, ATP 150 μM, pig microtubules.
Series [4] in a line: PK study in ICR mice. In kind it is in vivo, mouse. To be noted: plasma, route and dose not given. The protocol:
6 ICR mice (male/female) were divided into two groups, administered orally and intravenously, respectively, with 3 mice/group. The mice were fasted for 10-14 hours prior to dosing with free access to water.
The test compound was weighed according to the administration dose, and prepared into a dose formulation at appropriate concentrations (for rats and mice, intravenous and oral administration at a volume of 5 mL/kg and 10 mL/kg, respectively), wherein the intravenous injection was a clear solution, and the oral preparation was a clear solution or a homogeneous suspension.
Animals were dosed by intravenous injection and oral gavage, and blood samples were collected at 0.033, 0.083, 0.25, 0.5, 1, 2, 4, 8, and 24 h after intravenous administration and 0.083, 0.25, 0.5, 1, 2, 4, 6, 8, and 24 h after oral administration. Whole blood was centrifuged at 6800 g for 6 min at 4° C. and the top plasma was stored in a −80° C. freezer for later analysis.
The DMSO stock solution of the test compound was diluted into a series of working solutions with a methanol or an acetonitrile solution, and added to a blank plasma matrix, and standard curves were generated and quality control samples were prepared. An appropriate volume of the plasma sample was taken and a suitable multiple of methanol or acetonitrile containing an internal standard was added for protein precipitation based on the response. After centrifugation of all samples at 18000 g for 10 min at 4° C., an appropriate amount of supernatant was taken for LC-MS/MS injection analysis.
Drug concentration-time curves in plasma were plotted according to test concentrations, and pharmacokinetic parameters were calculated using noncompartmental analysis by WinNonlin software, including: half-life (T½), area under the concentration-time curve from time zero to time t (AUCO-t), clearance (CL), volume of distribution at steady state (Vss) and bioavailability (F), with some of the test results shown in Table 4.

The mark [5] stands for this setting: both sexes, mouse, read-out: AUC.
The mark [6] stands for this setting: both sexes, mouse, read-out: Cmax.

Read-outs that look alike come from different tables or passages of the source.

KIF18A, sequence (Q8NI77 whole entry): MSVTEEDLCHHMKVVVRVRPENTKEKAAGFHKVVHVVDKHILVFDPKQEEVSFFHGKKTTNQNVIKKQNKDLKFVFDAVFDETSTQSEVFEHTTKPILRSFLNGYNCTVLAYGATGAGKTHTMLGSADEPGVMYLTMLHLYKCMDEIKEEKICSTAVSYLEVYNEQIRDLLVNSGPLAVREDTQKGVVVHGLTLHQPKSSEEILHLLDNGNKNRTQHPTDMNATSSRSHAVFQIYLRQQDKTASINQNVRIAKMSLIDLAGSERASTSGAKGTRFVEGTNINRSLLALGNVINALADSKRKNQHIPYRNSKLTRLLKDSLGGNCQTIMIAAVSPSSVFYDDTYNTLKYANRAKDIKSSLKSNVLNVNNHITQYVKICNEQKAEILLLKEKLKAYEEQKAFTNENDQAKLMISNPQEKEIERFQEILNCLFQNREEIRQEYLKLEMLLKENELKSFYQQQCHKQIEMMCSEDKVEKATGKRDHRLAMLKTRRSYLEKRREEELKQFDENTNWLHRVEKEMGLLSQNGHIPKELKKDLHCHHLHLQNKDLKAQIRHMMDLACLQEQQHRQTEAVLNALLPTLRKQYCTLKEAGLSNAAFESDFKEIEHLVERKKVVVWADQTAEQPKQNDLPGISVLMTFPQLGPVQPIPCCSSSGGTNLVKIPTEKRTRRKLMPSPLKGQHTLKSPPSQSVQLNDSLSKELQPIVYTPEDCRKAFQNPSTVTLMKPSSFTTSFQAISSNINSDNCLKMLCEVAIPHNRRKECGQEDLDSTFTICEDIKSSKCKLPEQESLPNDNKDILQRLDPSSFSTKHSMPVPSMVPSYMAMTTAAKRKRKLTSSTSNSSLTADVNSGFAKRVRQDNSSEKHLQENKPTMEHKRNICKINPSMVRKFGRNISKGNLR
KIF18A, sequence (P02550 whole entry partner): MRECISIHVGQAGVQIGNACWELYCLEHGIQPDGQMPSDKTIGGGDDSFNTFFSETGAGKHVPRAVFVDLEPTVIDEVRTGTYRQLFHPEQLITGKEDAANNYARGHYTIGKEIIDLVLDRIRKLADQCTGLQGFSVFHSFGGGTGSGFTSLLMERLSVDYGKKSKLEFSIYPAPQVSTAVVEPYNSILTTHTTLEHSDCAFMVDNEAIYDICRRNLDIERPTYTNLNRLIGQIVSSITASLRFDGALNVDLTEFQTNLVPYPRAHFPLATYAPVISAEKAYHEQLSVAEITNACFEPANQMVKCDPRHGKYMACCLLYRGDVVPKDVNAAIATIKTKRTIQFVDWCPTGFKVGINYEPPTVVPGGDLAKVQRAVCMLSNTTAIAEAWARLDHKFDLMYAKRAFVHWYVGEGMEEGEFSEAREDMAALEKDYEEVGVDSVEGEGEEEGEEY
KIF18A, sequence (P02554 whole entry partner): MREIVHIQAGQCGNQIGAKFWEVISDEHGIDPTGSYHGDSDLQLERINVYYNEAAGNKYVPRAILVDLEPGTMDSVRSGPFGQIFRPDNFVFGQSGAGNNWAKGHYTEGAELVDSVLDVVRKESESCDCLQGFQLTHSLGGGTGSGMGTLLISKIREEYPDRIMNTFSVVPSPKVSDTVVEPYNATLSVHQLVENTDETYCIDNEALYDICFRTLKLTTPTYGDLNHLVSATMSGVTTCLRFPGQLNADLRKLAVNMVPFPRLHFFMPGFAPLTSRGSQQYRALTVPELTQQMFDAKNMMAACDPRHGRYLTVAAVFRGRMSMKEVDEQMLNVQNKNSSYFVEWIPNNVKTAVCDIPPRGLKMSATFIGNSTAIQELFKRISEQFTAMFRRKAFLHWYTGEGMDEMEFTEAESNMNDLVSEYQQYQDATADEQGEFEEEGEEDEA

Broadly, the IC50 is the midpoint of a concentration-inhibition curve. Usually AUC stands for concentration integrated over time. For orientation: Cmax means the maximum level reached in the sampled fluid or tissue. For `O=C(Nc1cccc2c1cc1n2CCC(F)(F)C1O)c1ccc(NS(=O)(=O)CCO)cc1N1CCC2(CC1)CC2` (single isomer, unassigned) [Compound 384-P1, N-(8,8-difluoro-9-hydroxy-6,7,8,9-tetrahydropyridino[1,2-a]indol-1-yl)-4-((2-hydroxyethyl)sulfonamido)-2-(6-azaspiro[2.5]oct-6-yl)benzamide], the IC50 in series [1] (Homo sapiens, OVCAR-3, 240 h) was no more than 0.05 µM; in series [2] (Homo sapiens, HT-29, 144 h), no more than 0.2 µM; in series [3] it was no more than 0.05 µM. In addition, the AUC in series [4] (setting [5]) is 1290 ng·h/mL. Besides, in series [4] (setting [6]), the Cmax was 366 ng/mL.
As for `O=C(Nc1cccc2c1cc1n2CCC(F)(F)C1O)c1ccc(NS(=O)(=O)CCO)cc1N1CCC2(CC1)CC2` (single isomer, unassigned) [Compound 384-P2, N-(8,8-difluoro-9-hydroxy-6,7,8,9-tetrahydropyridino[1,2-a]indol-1-yl)-4-((2-hydroxyethyl)sulfonamido)-2-(6-azaspiro[2.5]oct-6-yl)benzamide], the figures for the concentration for half-maximal inhibition (IC50) in series [1], in series [2] and in series [3] were no more than 0.05 µM, no more than 0.2 µM and 0.05 to 0.5 µM, respectively.
`[2H]C([2H])([2H])OC1c2cc3c(NC(=O)c4ccc(NS(=O)(=O)CCO)cc4N4CCC5(CC4)CC5)cccc3n2CCC1(F)F` (single isomer, unassigned) [Compound 385-P2, N-(8,8-difluoro-9-(methoxy-d3)-6,7,8,9-tetrahydropyridino[1,2-a]indol-1-yl)-4-((2-hydroxyethyl)sulfonamido)-2-(6-azaspiro[2.5]oct-6-yl)benzamide]: the IC50 in series [1] was no more than 0.05 µM; in series [2] it was no more than 0.2 µM.
Regarding `[2H]C([2H])([2H])OC1c2cc3c(NC(=O)c4ccc(NS(=O)(=O)CCO)cc4N4CCC(=C(F)F)CC4)cccc3n2CCC1(F)F` (single isomer, unassigned) [Compound 386-P2, N-(8,8-difluoro-9-(methoxy-d3)-6,7,8,9-tetrahydropyridino[1,2-a]indol-1-yl)-2-(4-(difluoromethylene)piperidin-1-yl)-4-((2-hydroxyethyl)sulfonamido)benzamide], the IC50 in series [1] is 0.05 to 0.5 µM; in series [2], no more than 0.2 µM; in series [3], no more than 0.05 µM.
As for `[2H]C([2H])([2H])OC1c2cc3c(NC(=O)c4ccc(NS(=O)(=O)CCO)cc4N4CCC5(CC4)CC5)cccc3n2CCC1(F)F` (stereo not shown) [Compound 385, N-(8,8-difluoro-9-(methoxy-d3)-6,7,8,9-tetrahydropyridino[1,2-a]indol-1-yl)-4-((2-hydroxyethyl)sulfonamido)-2-(6-azaspiro[2.5]oct-6-yl)benzamide], the 50% inhibitory concentration (IC50) in series [1] was no more than 0.05 µM; in series [2] (Homo sapiens, HT-29, 144 h), no more than 0.2 µM; in series [3] it was 0.05 to 0.5 µM.
For the compound `[2H]C([2H])([2H])OC1c2cc3c(NC(=O)c4ccc(NS(=O)(=O)CCO)cc4N4CCC(=C(F)F)CC4)cccc3n2CCC1(F)F` (stereo not shown) [Compound 386, N-(8,8-difluoro-9-(methoxy-d3)-6,7,8,9-tetrahydropyridino[1,2-a]indol-1-yl)-2-(4-(difluoromethylene)piperidin-1-yl)-4-((2-hydroxyethyl)sulfonamido)benzamide], the IC50 is 0.05 to 0.5 µM in series [1]; 0.2 to 1 µM in series [2] (Homo sapiens, HT-29, 144 h); 0.05 to 0.5 µM in series [3].
`CC1(C)OCCn2c1cc1c(NC(=O)c3ccc(NS(=O)(=O)CCO)cc3N3CCC4(CC3)CC4)cccc12` [Compound 396, N-(1,1-dimethyl-3,4-dihydro-1H-[1,4]oxazino[4,3-a]indol-9-yl)-4-((2-hydroxyethyl)sulfonamido)-2-(6-azaspiro[2.5]octan-6-yl)benzamide]: the concentration for half-maximal inhibition (IC50) in series [1] (Homo sapiens, OVCAR-3, 240 h) was no more than 0.05 µM; in series [2] (Homo sapiens, HT-29, 144 h), no more than 0.2 µM; in series [3] it was 0.05 to 0.5 µM.
`CC1=CCCn2c1cc1c(NC(=O)c3ccc(NS(=O)(=O)CCO)cc3N3CCC4(CC3)CC4)cccc12` [Compound 410, 4-(2-hydroxyethyl)sulfonamido-N-(9-methyl-6,7-dihydropyridino[1,2-a]indol-1-yl)-2-(6-azaspiro[2.5]octan-6-yl)benzamide]: the IC50 was no more than 0.05 µM in series [1] (Homo sapiens, OVCAR-3, 240 h); no more than 0.2 µM in series [2] (Homo sapiens, HT-29, 144 h); 0.05 to 0.5 µM in series [3]. Moreover, the AUC in series [4] (setting [5]) stood at 16400 ng·h/mL. Moreover, the Cmax in series [4] (setting [6]) is 2790 ng/mL.
Compound `O=C(Nc1ccc(F)c2c1nc1n2CCOC1)c1ccc(NS(=O)(=O)CCO)cc1N1CCC(=C(F)F)CC1` [Example 323, 2-(4-(difluoromethylene)piperidin-1-yl)-N-(6-fluoro-3,4-dihydro-1H-benzo[4,5]imidazo[2,1-c][1,4]oxazin-9-yl)-4-((2-hydroxyethyl)sulfonamide)benzamide] showed a concentration for half-maximal inhibition (IC50) in series [1] of no more than 0.05 µM. In series [3], this compound displayed an IC50 of no more than 0.05 µM. In addition, in series [4], the AUC was 4113 ng·h/mL and the Cmax is 762 ng/mL.
Turning to `O=C(Nc1ccnc2c1cc1n2CCC(F)(F)C1)c1ccc(NS(=O)(=O)CCO)cc1N1CCC(=C(F)F)CC1` [Example 376], the IC50 was no more than 0.05 µM in series [1], 0.2 to 1 µM in series [2] and no more than 0.05 µM in series [3].
Consider `O=C(Nc1ccnc2c1cc1n2CCC(F)(F)C1)c1ccc(NS(=O)(=O)CCO)cc1N1CCC2(CC1)CC2` [Example 380, N-(7,7-difluoro-6,7,8,9-tetrahydropyridin[3,2-b]indolizin-4-yl)-4-((2-hydroxyethyl)sulfonamido)-2-(6-azaspiro[2.5]oct-6-yl)benzamide], for which the IC50 was no more than 0.05 µM in series [1], no more than 0.2 µM in series [2] and no more than 0.05 µM in series [3].
For the compound `CNc1cc(NS(=O)(=O)CCO)cc(N2CCC3(CC2)CC3)c1C(=O)Nc1ccc(OC)c(N2CCC(F)(F)CC2)n1` [Example 491, N-(6-(4,4-difluoropiperidin-1-yl)-5-methoxypyridin-2-yl)-4-((2-hydroxyethyl)sulfonamido)-2-(methylamino)-6-(6-azaspiro[2.5]oct-6-yl)benzamide], the IC50 in series [1] (Homo sapiens, OVCAR-3, 240 h) was no more than 0.05 µM; in series [3] it was 0.05 to 0.5 µM. Also, in series [4] (setting [5]), the AUC was 24800 ng·h/mL. In series [4] (setting [6]), the maximum concentration (Cmax) was found to be 2300 ng/mL.
The like results for `CCOc1ccc(NC(=O)c2ccc(NS(=O)(=O)CCO)cc2N2CCC3(CC2)CC3)c2cc3n(c12)CC(C)(C)OC3` [Example 535, N-(6-ethoxy-3,3-dimethyl-3,4-dihydro-1H-[1,4]oxazino[4,3-a]indol-9-yl)-4-((2-hydroxyethyl)sulfonamido)-2-(6-azaspiro[2.5]octan-6-yl)benzamide] were, in that order, no more than 0.05 µM, 0.05 to 0.5 µM, 101000 ng·h/mL and 8370 ng/mL.
The matching figures for `O=C(Nc1ccc(OC(F)F)c2c1cc1n2CCC(F)(F)C1)c1ccc(NS(=O)(=O)CCO)cc1N1CCC2(CC1)CC2` [Example 583]: no more than 0.05 µM, 0.05 to 0.5 µM, 43300 ng·h/mL and 4410 ng/mL.

The values are drawn from patent publication US20260070887A1 (Shenzhen Zhongge Biological Technology Co., Ltd., priority 2022, published 2026).
